Measured values reported in patent EP2062578A1, “Novel use of chemical compounds for the treatment of AIDS” (priority 2007, dated 2009).
Entries after “also recorded” stand apart in the source; their conditions may differ.

Columns and labels:
Nef57-205 = molecular target: T1, Nef57-205 (Human immunodeficiency virus type 1 group M subtype B, UniProt P03406); experiment: Isothermal Titration Calorimetry (ITC) binding to Nef57-205; set-up: species or system HIV-1; conditions: for ΔH: enthalpy variation; for ΔH / TΔS / ΔG / N: ITC at 25 °C; for TΔS: entropy variation; for ΔG: free enthalpy variation; for N: stoichiometry, Compound X in 20 mM Hepes pH 7.0, Compound Y in 20 mM Na-phosphate pH 8.0, 100 mM NaCl, 5% DMSO
T1 construct: Purified Nef57-205, as described in Arold et al, Structure 1997 5(10) p 1361); made in house
Description: Isothermal titration calorimetry (ITC) is used to investigate in vitro the binding affinity and thermodynamic parameters of the inhibitory molecules.
Purified Nef57-205, as described in Arold et al, Structure 1997 5(10) p 1361) was extensively dialyzed in degassed ITC buffer (20 mM Hepes pH 7.0, 100 mM NaCl, 5% DMSO), except for binding experiments with Compound Y, where 20 mM Na-phosphate pH 8.0, 100 mM NaCl, 5% DMSO was used as buffer. Synthetic inhibitors were first dissolved at 10 mM in 100% DMSO, and then diluted to 300 - 400 µM in ITC buffer with DMSO concentration adjusted to 5%. Inhibitors were injected from the 300 µL syringe into the 1.4 mL sample cell containing 15-25 µM Nef57-205. ITC titrations were performed at 25 °C, using 10 - 15 µl injections every 300 secondes. All inhibitors were also titrated into ITC buffer alone, and the resulting heat of dilution was subtracted from the experimental curves. ITC was performed with a VP ITC MicroCalorimeter from MicroCal Inc., and data were fitted with Microcal Origin™ software. The results are summarized in Table I and illustrated in Figure 1.

[1] = test system: Nef-mediated MHC-I down-regulation; experiment: MHC-I down-regulation by Nef in Nef-GFP transfected human PBMC (flow cytometry); assay type: cell-based; conditions: 25µM or 10µM for 3 hr, compared with 5µM LY294002 as control
Description: (§1) Nef advances the endocytosis and degradation of […] surface proteins, including CD4 and MHC proteins (Schwartz et al., 1996, Nature Medecine 2:338-342). Consequently, some compounds of the instant invention were tested for their ability to prevent their degradations by interacting with Nef. Human peripheral blood mononuclear cells (PBMC) from healthy volunteers were purified by Ficoll gradient centrifugation ( Lymphoprep™, Axis-shield). Washed, isolated PBMC were transiently transfected using the nucleofection technology (human T cell Nucleofector™ kit, 5.10^6 cells, 5µg plasmid DNA Nef-GFP or GFP (Nucleofactor Program V-024™, Amaxa Biosystems)). The same Nef sequence as described above in example 1 was cloned in pEGFP-N3 (Clonetech). […]
(§2) At 45 hr post transfection cells were treated with 25 µM of Compound X or 0.5% DMSO (control) for 3 hrs. Cells were then incubated with human anti-CD4+-PE or human anti-HLA-ABC (MHC-I) and analyzed by flow cytometry. Flow Cytometric Analysis were performed as follows: Cells were washed and resuspended in fluorescence-activated cell sorter (FACS) medium (PBS 2% FCS 0.02% NaN3, pH 7.2). […] Cells were washed and analyzed on FACS scan using Flow Jo software™ (Beckman Coulter for 20100326 and BD Pharmingen for 551497).
(§3) Viable CD4+ T cells were analyzed for GFP and anti-CD4+ (panel A, figure 2) or GFP and anti-HLA-ABC (panel B, figure 2) staining. […]

[2] = test system: Nef-mediated CD4 down-regulation; experiment: CD4 down-regulation by Nef in Nef-GFP transfected human PBMC (flow cytometry); assay type: cell-based; conditions: 25µM or 10µM for 3 hr
Description: as §1, §2, §3

SMILES | Kd (Nef57-205) | ΔH (Nef57-205) | TΔS (Nef57-205) | ΔG (Nef57-205) | N (Nef57-205) | Nef-mediated MHC-I down-regulation [1] | Nef-mediated CD4 down-regulation [2]
CC(C)(C)c1ccc(OC(=O)Nc2ccc(O)c(C(=O)O)c2)cc1 [Compound X, 2-hydroxy-5-[(4-tert-butylphenoxy)carbonylamino]benzoic acid] | 1800 ± 850 nM | -0.956 ± 0.096 kcal/mol | 6.88 kcal/mol | -7.84 kcal/mol | 0.83 ± 0.06 | reduce in a dose-dependent manner; also recorded: partially blocked | not
CC(C)(C)c1ccc(OCC(=O)Nc2cccc(C(=O)O)c2)cc1 [Compound Y, 3-{[(4-tert-butylphenoxy)acetyl]amino}benzoic acid] | 980 ± 300 nM | -0.765 ± 0.0478 kcal/mol | 7.41 kcal/mol | -8.17 kcal/mol | 1.14 ± 0.1 |  | 
